The nature of data set [1]: Serum insulin levels in DIO mice. As to conditions: ad lib fed DIO mice, roflumilast 5 mg/kg p.o., 1 h. It counts as in vivo, mouse. How it is done:
(§1) Mice were kept in 12 h light/dark cycle in a temperature-controlled environment. Mice had free access to food and water unless noted otherwise. C57/B6 mice background was used unless noted otherwise. C57BL/6J and ob/ob (000632-B6. Cg-Lepob/J) male mice were obtained from Jackson Laboratory. PDE4D knock-out mice (034588-UCD) were obtained from MMRRC. For diet-induced obesity (DIO) studies, mice were fed a high fat diet (HFD) (60% fat, F3282; Bio-Serv) for minimum of 12 weeks to induce insulin resistance when diet-induced obese model is used. Insulin levels and blood glucose levels were monitored to confirm insulin resistance. To generate adipose-specific FGFR1 deletion, adiponectin-cre mice (B6; FVB-Tg (Adipoq-cre)1Evdr/J; Stock: 010803) were crossed to Fgfr1 flox/flox (B6.129S4-Fgfr1tm5.1Sor/J; Stock: 00767) mice. For AAV mediated expression of target proteins in adipose tissue, 5×10E+11 genomic copies of AAV were injected via tail vein or retro-orbital route.
Recombinant FGF1 (rFGF1) was dissolved in phosphate-buffered saline (PBS) at a concentration of 0.2 mg/ml and was injected subcutaneously at a 0.5 mg kg^−1 dose. Blood glucose was monitored at indicated time points after injection. For initial measurements (2-4 h) food was removed after injection to exclude any indirect effects stemming from anorexigenic effects of FGF1. […]

Data set [2] deals with blood glucose levels. Nature of the data set: Blood glucose levels in DIO mice. It counts as in vivo, mouse. As to conditions: roflumilast 5 mg/kg p.o. As for the experimental part: as §1
(§2) Recombinant FGF1 (rFGF1) was dissolved in phosphate-buffered saline (PBS) at a concentration of 0.2 mg/ml and was injected subcutaneously at a 0.5 mg kg^−1 dose. Blood glucose was monitored at indicated time points after injection. For initial measurements (2-4 h) food was removed after injection to exclude any indirect effects stemming from anorexigenic effects of FGF1. PDE4 inhibitor roflumilast stock in DMSO was diluted at 1 mg/ml in 30% captisol, pH 10 and delivered to mice thorough oral gavage at 5 mg kg^−1 dose. PDE3 inhibitor cilostamide stock in DMSO was diluted at 2 mg/ml in 30% captisol and delivered through intraperitoneal injection at 10 mg kg^−1 dose.

Data set [3] concerns serum FFA levels. Nature of the data set: Serum FFA levels in DIO mice. Particulars: ad lib fed DIO mice, roflumilast 5 mg/kg p.o., 1 h. It counts as in vivo, mouse. As for the experimental part:
as §1, §2

For data set [4], the system named is HSL phosphorylation at S660. Nature of the data set: Western blot of pHSL-S660 in 3T3-L1 adipocytes. It counts as cell-based. As to conditions: basal and ISO-stimulated cells, roflumilast 2 μM. As for the experimental part:
Tissues were lysed in cold lysis buffer (50 mM Tris, pH 7.5, 150 mM NaCl, 1% NP40, 0.5% NaDoc, 0.1% SDS, 5% glycerol, 1 mM EDTA, protease and phosphatase inhibitors (complete and PhosSTOP (Roche)) by homogenization by bead-beater for 30 s. Samples were cleared for 10 min at 18,000 g at 4° C. and the middle clear phase was transferred to new tubes. A second 30 min centrifugation was performed and the middle clear phase was transferred to new tubes. Five ul protein extract was used for BCA assay to determine protein concentration. Samples were boiled in Laemmli buffer. SDS-PAGE and blotting were performed using gradient gels and Trans-Blot Turbo Transfer System (Bio-Rad). Antibodies used were PDE4D (12918-1-AP, Proteintech), pHSL-660 (4126S, Cell signaling), HSL (4107S, Cell Signaling), tubulin (CP06, Millipore Sigma), and GFP (A01388, GenScript). PDE4D3-pS44 phospho-specific antibody was generated using PDE4D3-S44 FRRHpSWISFDVDNGTSAGR peptide (SEQ ID NO: 20) (Mackenzie et al., 2002) by Pocono Rabbit Farm, using 70-day rabbit antibody production protocol and purified via affinity purification. Primary antibodies were incubated for 2 h at room temperature (RT) or overnight (ON) at 4° C. Blots were developed using SuperSignal West Pico PLUS Chemiluminescent Substrate (ThermoFisher Scientific) and imaged with BioRad GelDoc system.
Background: A western blot detects proteins with antibodies after separation by electrophoresis.

The test system of data set [5] is blood glucose levels. As to the kind of experiment: Blood glucose levels in ob/ob mice. It counts as in vivo, mouse. As to conditions: ad lib fed ob/ob mice, atglistatin 120 mg/kg p.o. How it is done:
as §1, §2

The target in data set [6] is FGFR1 on mouse adipocytes (mouse) (UniProt P16092). Nature of the data set: cell-based or functional assay.
Chain of UniProt P16092 (P16092 22-822): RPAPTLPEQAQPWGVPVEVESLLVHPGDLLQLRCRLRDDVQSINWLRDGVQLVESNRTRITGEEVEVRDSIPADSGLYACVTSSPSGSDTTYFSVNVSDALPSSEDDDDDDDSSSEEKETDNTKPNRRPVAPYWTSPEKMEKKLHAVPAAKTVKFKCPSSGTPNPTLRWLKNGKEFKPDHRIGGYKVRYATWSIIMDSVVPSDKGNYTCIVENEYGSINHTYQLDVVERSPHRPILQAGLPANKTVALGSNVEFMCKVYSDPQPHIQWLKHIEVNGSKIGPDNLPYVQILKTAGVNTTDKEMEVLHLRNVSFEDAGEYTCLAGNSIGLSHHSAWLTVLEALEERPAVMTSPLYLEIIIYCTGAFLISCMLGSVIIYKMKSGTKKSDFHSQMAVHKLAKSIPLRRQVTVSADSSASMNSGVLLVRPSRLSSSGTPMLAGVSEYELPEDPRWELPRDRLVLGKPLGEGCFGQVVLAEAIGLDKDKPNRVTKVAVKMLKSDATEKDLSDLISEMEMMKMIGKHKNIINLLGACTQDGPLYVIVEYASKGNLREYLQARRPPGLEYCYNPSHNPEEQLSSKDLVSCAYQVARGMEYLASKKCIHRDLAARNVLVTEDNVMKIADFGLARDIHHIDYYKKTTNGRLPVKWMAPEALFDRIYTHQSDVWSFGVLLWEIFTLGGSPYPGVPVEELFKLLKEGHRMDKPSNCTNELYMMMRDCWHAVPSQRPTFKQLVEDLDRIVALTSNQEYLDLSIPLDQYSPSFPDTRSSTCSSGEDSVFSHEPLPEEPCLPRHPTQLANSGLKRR
Data set [7] deals with T1, GFP-tagged perilipin (perilipin-GFP), Q8CGN5.
T1 chain: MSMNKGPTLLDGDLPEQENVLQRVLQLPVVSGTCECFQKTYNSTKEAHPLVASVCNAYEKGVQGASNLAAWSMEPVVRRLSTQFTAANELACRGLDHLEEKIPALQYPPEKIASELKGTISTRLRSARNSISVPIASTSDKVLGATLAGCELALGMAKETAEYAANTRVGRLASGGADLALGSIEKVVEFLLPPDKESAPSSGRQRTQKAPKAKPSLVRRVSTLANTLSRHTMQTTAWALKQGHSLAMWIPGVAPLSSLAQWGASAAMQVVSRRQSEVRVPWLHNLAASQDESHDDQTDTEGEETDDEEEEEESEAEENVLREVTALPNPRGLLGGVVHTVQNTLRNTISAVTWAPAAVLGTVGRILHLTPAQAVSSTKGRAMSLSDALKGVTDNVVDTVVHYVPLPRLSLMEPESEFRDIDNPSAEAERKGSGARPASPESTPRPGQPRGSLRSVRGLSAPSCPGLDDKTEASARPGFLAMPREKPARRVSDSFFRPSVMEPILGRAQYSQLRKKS

Regarding `O=C(Nc1c(Cl)cncc1Cl)c1ccc(OC(F)F)c(OCC2CC2)c1` [roflumilast, reference compound], in data set [1], the insulin levels result is “transiently increased”. For the same molecule, the blood glucose entry in data set [2] (ad lib fed DIO mice) is given as “transiently increased”. In addition, the blood glucose levels entry in data set [2] (fasted DIO mice) is recorded as “more sustained increase in blood glucose levels”. Besides, the “serum FFA” value in data set [3] was “transiently increased”. For the same molecule, the “ability of FGF1 to suppress HSL phosphorylation in presence of roflumilast” value in data set [4] is “lost”.

Turning to `CN(C)C(=O)Nc1cccc(-c2ccc(N(C)C)cc2)c1` [Atglistatin, reference compound], the blood glucose levels entry in data set [5] was “rapidly lowered blood glucose levels”.

In data set [6], Recombinant FGF1 (rFGF1) (ligand) yielded a serum FFA levels in DIO adR1WT and adR1KO mice of 30%.

B1: mCherry-tagged HSL (HSL-mCherry) (protein)
chain: MDLRTMTQSLVTLAEDNMAFFSSQGPGETARRLSNVFAGVREQALGLEPTLGQLLGVAHHFDLDTETPANGYRSLVHTARCCLAHLLHKSRYVASNRKSIFFRASHNLAELEAYLAALTQLRAMAYYAQRLLTINRPGVLFFEGDEGLTADFLQEYVTLHKGCFYGRCLGFQFTPAIRPFLQTLSIGLVSFGEHYKRNETGLSVTASSLFTGGRFAIDPELRGAEFERIIQNLDVHFWKAFWNITEIEVLSSLANMASTTVRVSRLLSLPPEAFEMPLTSDPRLTVTISPPLAHTGPAPVLARLISYDLREGQDSKVLNSLAKSEGPRLELRPRPHQAPRSRALVVHIHGGGFVAQTSKSHEPYLKNWAQELGVPIFSIDYSLAPEAPFPRALEECFFAYCWAVKHCDLLGSTGERICLAGDSAGGNLCITVSLRAAAYGVRVPDGIMAAYPVTTLQSSASPSRLLSLMDPLLPLSVLSKCVSAYSGTEAEDHFDSDQKALGVMGLVQRDTSLFLRDLRLGASSWLNSFLELSGRKPQKTTSPTAESVRPTESMRRSVSEAALAQPEGLLGTDTLKKLTIKDLSNSEPSDSPEMSQSMETLGPSTPSDVNFFLRPGNSQEEAEAKDEVRPMDGVPRVRAAFPEGFHPRRSSQGVLHMPLYTSPIVKNPFMSPLLAPDSMLKTLPPVHLVACALDPMLDDSVMFARRLRDLGQPVTLKVVEDLPHGFLSLAALCRETRQATEFCVQRIRLILTPPAAPLN
As for B1, in data set [7], the “co-localization of perilipin-GFP and HSL-mCherry in live 3T3-L1 adipocytes (fluorescence overlap, confocal microscopy)” value is “FGF1 reduced the isoproterenol-induced co-localization of perilipin-GFP and HSL-mCherry”.
